Source: ChEMBL document CHEMBL3885861, “Open TG-GATES”

Species on record: Rattus norvegicus
Experiment: Open TG-GATES - Regimen: Single
Format: toxicity, organism-based, Sprague-Dawley
Design: regimen Single, gender Male, age 6 weeks
Details: in vivo, iv, route intravenous injection; for MCV / Mono / Neu / PT / Plat / RBC / Ret / WBC / APTT / Bas / Eos / Fbg / Hb / Ht / Lym / MCH / MCHC: tissue Blood; for KIDNEY_L / KIDNEY_R / KIDNEY_TOTAL: tissue Kidney; for LIVER: tissue Liver; for A/G / ALP / ALT / AST / BUN / CRE / Ca / Cl / DBIL / GLC / IP / K / LDH / Na / PL / RALB / TBIL / TC / TG / TP / gamma-GTP: tissue Plasma
[1] = 0 mg/kg, 24 h, dose level Control

C[C@@H]1[C@H](O)[C@@H](C)/C=C/C=C/C=C/C=C/C=C/C=C/C=C/[C@H](O[C@@H]2O[C@H](C)[C@@H](O)[C@H](N)[C@@H]2O)C[C@@H]2O[C@](O)(C[C@@H](O)C[C@@H](O)[C@H](O)CC[C@@H](O)C[C@@H](O)CC(=O)O[C@H]1C)C[C@H](O)[C@H]2C(=O)O [AMPHOTERICIN B]
MCV [1]: 62.4 fL
Mono [1]: 2.2%
Neu [1]: 17%
PT [1]: 12.3 s
Plat [1]: 145.5 x10_4/uL
RBC [1]: 621.8 x10_4/ul
Ret [1]: 7.1%
WBC [1]: 93.8 x10_2/uL
KIDNEY_L [1]: 1 g
KIDNEY_R [1]: 1 g
KIDNEY_TOTAL [1]: 1.9 g
LIVER [1]: 10.4 g
A/G [1]: 0.9
ALP [1]: 1818.6 IU/L
ALT [1]: 37.6 IU/L
AST [1]: 66.8 IU/L
BUN [1]: 15.2 mg/dL
CRE [1]: 0.2 mg/dL
Ca [1]: 11 mg/dL
Cl [1]: 105.6 meq/L
DBIL [1]: 0.02 mg/dL
GLC [1]: 169 mg/dL
IP [1]: 7.7 mg/dL
K [1]: 3.8 meq/L
LDH [1]: 53.2 IU/L
Na [1]: 143.4 meq/L
PL [1]: 133.4 mg/dL
RALB [1]: 2.6 g/dL
TBIL [1]: 0.054 mg/dL
TC [1]: 74.2 mg/dL
TG [1]: 96.8 mg/dL
TP [1]: 5.8 g/dL
gamma-GTP [1]: 1.6 IU/L
TERMINAL_BW (1 mg/kg, 3 h, dose level Low): 214.2 g
APTT (1 mg/kg, 3 h, dose level Low): 16.8 s
Bas (1 mg/kg, 3 h, dose level Low): 0%
Eos (1 mg/kg, 3 h, dose level Low): 0.6%
Fbg (1 mg/kg, 3 h, dose level Low): 257 mg/dL
Hb (1 mg/kg, 3 h, dose level Low): 13.6 g/dL
Ht (1 mg/kg, 3 h, dose level Low): 39.9%
Lym (1 mg/kg, 3 h, dose level Low): 74.6%
MCH (1 mg/kg, 3 h, dose level Low): 21.2 pg
MCHC (1 mg/kg, 3 h, dose level Low): 34.1%
MCV (1 mg/kg, 3 h, dose level Low): 62 fL
Mono (1 mg/kg, 3 h, dose level Low): 3.2%
Neu (1 mg/kg, 3 h, dose level Low): 20.6%
PT (1 mg/kg, 3 h, dose level Low): 13 s
Plat (1 mg/kg, 3 h, dose level Low): 139.1 x10_4/uL
RBC (1 mg/kg, 3 h, dose level Low): 644.6 x10_4/ul
Ret (1 mg/kg, 3 h, dose level Low): 7.7%
WBC (1 mg/kg, 3 h, dose level Low): 97.1 x10_2/uL
KIDNEY_L (1 mg/kg, 3 h, dose level Low): 1 g
KIDNEY_R (1 mg/kg, 3 h, dose level Low): 1 g
KIDNEY_TOTAL (1 mg/kg, 3 h, dose level Low): 1.9 g
LIVER (1 mg/kg, 3 h, dose level Low): 9.8 g
A/G (1 mg/kg, 3 h, dose level Low): 0.9
ALP (1 mg/kg, 3 h, dose level Low): 1691 IU/L
ALT (1 mg/kg, 3 h, dose level Low): 40 IU/L
AST (1 mg/kg, 3 h, dose level Low): 85.4 IU/L
BUN (1 mg/kg, 3 h, dose level Low): 18.8 mg/dL
CRE (1 mg/kg, 3 h, dose level Low): 0.2 mg/dL
Ca (1 mg/kg, 3 h, dose level Low): 10.9 mg/dL
Cl (1 mg/kg, 3 h, dose level Low): 106.6 meq/L
DBIL (1 mg/kg, 3 h, dose level Low): 0.018 mg/dL
GLC (1 mg/kg, 3 h, dose level Low): 173.4 mg/dL
IP (1 mg/kg, 3 h, dose level Low): 8.6 mg/dL
K (1 mg/kg, 3 h, dose level Low): 3.9 meq/L
LDH (1 mg/kg, 3 h, dose level Low): 58.8 IU/L
Na (1 mg/kg, 3 h, dose level Low): 143.2 meq/L
PL (1 mg/kg, 3 h, dose level Low): 129.4 mg/dL
RALB (1 mg/kg, 3 h, dose level Low): 2.6 g/dL
TBIL (1 mg/kg, 3 h, dose level Low): 0.058 mg/dL
TC (1 mg/kg, 3 h, dose level Low): 74 mg/dL
TG (1 mg/kg, 3 h, dose level Low): 53.8 mg/dL
TP (1 mg/kg, 3 h, dose level Low): 5.6 g/dL
gamma-GTP (1 mg/kg, 3 h, dose level Low): 2 IU/L
TERMINAL_BW (1 mg/kg, 6 h, dose level Low): 208.2 g
APTT (1 mg/kg, 6 h, dose level Low): 15.4 s
Bas (1 mg/kg, 6 h, dose level Low): 0%
Eos (1 mg/kg, 6 h, dose level Low): 0.8%
Fbg (1 mg/kg, 6 h, dose level Low): 286.6 mg/dL
Hb (1 mg/kg, 6 h, dose level Low): 13.3 g/dL
Ht (1 mg/kg, 6 h, dose level Low): 39.5%
Lym (1 mg/kg, 6 h, dose level Low): 68.6%
MCH (1 mg/kg, 6 h, dose level Low): 20.9 pg
MCHC (1 mg/kg, 6 h, dose level Low): 33.7%
MCV (1 mg/kg, 6 h, dose level Low): 62 fL
Mono (1 mg/kg, 6 h, dose level Low): 2.8%
Neu (1 mg/kg, 6 h, dose level Low): 27%
PT (1 mg/kg, 6 h, dose level Low): 12.8 s
Plat (1 mg/kg, 6 h, dose level Low): 135.3 x10_4/uL
RBC (1 mg/kg, 6 h, dose level Low): 636.4 x10_4/ul
Ret (1 mg/kg, 6 h, dose level Low): 7.9%
WBC (1 mg/kg, 6 h, dose level Low): 98.4 x10_2/uL
KIDNEY_L (1 mg/kg, 6 h, dose level Low): 1 g
KIDNEY_R (1 mg/kg, 6 h, dose level Low): 0.9 g
KIDNEY_TOTAL (1 mg/kg, 6 h, dose level Low): 1.9 g
LIVER (1 mg/kg, 6 h, dose level Low): 9 g
A/G (1 mg/kg, 6 h, dose level Low): 0.8
ALP (1 mg/kg, 6 h, dose level Low): 1534.4 IU/L
ALT (1 mg/kg, 6 h, dose level Low): 38.2 IU/L
AST (1 mg/kg, 6 h, dose level Low): 70.8 IU/L
BUN (1 mg/kg, 6 h, dose level Low): 16.4 mg/dL
CRE (1 mg/kg, 6 h, dose level Low): 0.1 mg/dL
Ca (1 mg/kg, 6 h, dose level Low): 10.7 mg/dL
Cl (1 mg/kg, 6 h, dose level Low): 106.6 meq/L
DBIL (1 mg/kg, 6 h, dose level Low): 0.016 mg/dL
GLC (1 mg/kg, 6 h, dose level Low): 180 mg/dL
IP (1 mg/kg, 6 h, dose level Low): 10.1 mg/dL
K (1 mg/kg, 6 h, dose level Low): 3.4 meq/L
LDH (1 mg/kg, 6 h, dose level Low): 57.2 IU/L
Na (1 mg/kg, 6 h, dose level Low): 144.6 meq/L
PL (1 mg/kg, 6 h, dose level Low): 135 mg/dL
RALB (1 mg/kg, 6 h, dose level Low): 2.6 g/dL
TBIL (1 mg/kg, 6 h, dose level Low): 0.062 mg/dL
TC (1 mg/kg, 6 h, dose level Low): 83.8 mg/dL
TG (1 mg/kg, 6 h, dose level Low): 41.4 mg/dL
TP (1 mg/kg, 6 h, dose level Low): 5.7 g/dL
gamma-GTP (1 mg/kg, 6 h, dose level Low): 1.4 IU/L
TERMINAL_BW (1 mg/kg, 9 h, dose level Low): 208.6 g
APTT (1 mg/kg, 9 h, dose level Low): 16.5 s
Bas (1 mg/kg, 9 h, dose level Low): 0%
Eos (1 mg/kg, 9 h, dose level Low): 1%
Fbg (1 mg/kg, 9 h, dose level Low): 296.2 mg/dL
Hb (1 mg/kg, 9 h, dose level Low): 13.2 g/dL
Ht (1 mg/kg, 9 h, dose level Low): 38.5%
Lym (1 mg/kg, 9 h, dose level Low): 71.4%
MCH (1 mg/kg, 9 h, dose level Low): 20.9 pg
MCHC (1 mg/kg, 9 h, dose level Low): 34.2%
MCV (1 mg/kg, 9 h, dose level Low): 61 fL
Mono (1 mg/kg, 9 h, dose level Low): 1.8%
Neu (1 mg/kg, 9 h, dose level Low): 25.4%
PT (1 mg/kg, 9 h, dose level Low): 12.9 s
Plat (1 mg/kg, 9 h, dose level Low): 132.4 x10_4/uL
RBC (1 mg/kg, 9 h, dose level Low): 631.6 x10_4/ul
Ret (1 mg/kg, 9 h, dose level Low): 7.9%
WBC (1 mg/kg, 9 h, dose level Low): 97.1 x10_2/uL
KIDNEY_L (1 mg/kg, 9 h, dose level Low): 0.9 g
KIDNEY_R (1 mg/kg, 9 h, dose level Low): 0.9 g
KIDNEY_TOTAL (1 mg/kg, 9 h, dose level Low): 1.9 g
